Experimental data: patent publication US9144569B2, “Methods of administering an aromatase inhibitor, prostaglandin and GnRH for regulating ovulation in cattle” (UNIVERSITY OF SASKATCHEWAN, priority 2010, dated 2015)
Read-outs that look alike come from different tables or passages of the source.

Legend:
plasma progesterone = experiment: Example II: plasma progesterone, 3-day letrozole regimen; type: in vivo, cattle; conditions: 3-day regimen, groups combined; numerically higher
Protocol: Four days after follicular ablation, heifers were given 500 μg of cloprostenol (PGF, Estrumate, Schering-Plough Animal Health, Pointe-Claire, QC, Canada) intramuscularly (im) to induce regression of the CL and to synchronize ovulation. The experiment was performed in two replicates (n=20-27 per replicate) and each heifer was used only once. In replicate 1, heifers were assigned randomly at the time of ovulation (Day 0) to the following groups and given a 3-day regimen of letrozole from Days 1 to 3 (n=5), Days 3 to 5 (n=5), Days 5 to 7 (n=5), or no treatment (control group, n=5). In replicate 2, heifers were similarly assigned to groups and given letrozole from Days 1 to 3, (n=5), Days 3 to 5 (n=4), or Days 5 to 7 (n=4), but untreated control heifers were arranged in three sub-groups to serve as contemporaneous controls for each letrozole-group during intensive blood sampling periods (i.e., control Days 1 to 3, n=4; control Days 3 to 5, n=4; and control Days 5 to 7, n=5). For practical purposes, the total dose of letrozole (250 μg/kg) was calculated on the basis of an average weight of 350 kg for all heifers and administered intravenously in daily divided doses over 3 days (85 μg/kg per day). […]
Plasma progesterone concentrations were determined in duplicate using a commercial solid-phase kit (Coat-A-Count; Diagnostic Products Corporation, Los Angeles, Calif., USA). […]

[1] = Example I: plasma letrozole concentration (LC/MS/MS) and non-compartmental pharmacokinetics after single iv dose; type: in vivo, cattle; conditions: for AUC(0-t): read-out: Area under the curve (AUClast); for Cmax: read-out: Maximal concentration (Cmax); for clearance: read-out: Systemic clearance (Cls) (converted); for half-life: read-out: Half-life (T1/2) (converted); for MRT: read-out: Mean residence time (MRT)
Protocol: Heifers in which a CL was detected during the initial examination were given […] cloprostenol (PGF, Estrumate™, Schering-Plough Animal Health, Pointe-Claire, QC, Canada) intramuscularly (im) to induce regression of the CL and to synchronize ovulation. Heifers were examined daily by transrectal ultrasonography to detect ovulation. Transvaginal ultrasound-guided follicular aspiration of follicles ≧5 mm was performed five to eight days after ovulation to synchronize wave emergence. Heifers were examined daily by transrectal ultrasonography to detect follicular wave emergence, which was expected 1 to 1.5 days after follicular ablation. Four days after follicular ablation (approximately 2.5 days after follicular wave emergence), and at the time follicular dominance becomes apparent, heifers were assigned randomly to the following treatment groups and given a single intravenous dose of 1) 500 μg/kg of letrozole (high dose group, n=9), 2) 250 μg/kg of letrozole (medium dose group, n=10), 3) 125 μg/kg of letrozole (low dose group, n=10), or 4) 20 ml of phosphate buffered saline (PBS control group, n=10). For practical purposes, the dose of letrozole was calculated based on an average weight of 400 kg for all heifers. The average oral dose used in women (2.5-5 mg per day for 5 days) was used to estimate the medium dose for cattle. The high and low doses were set as double and half the medium dose, respectively. The day of treatment was defined as Day 0. For intravenous injection, letrozole was prepared in 95% ethanol at a final concentration of 5 mg per ml, resulting in an injection volume of 10-40 ml. The experiment was performed in four replicates (n=2-3 per group per replicate) and each heifer was used only once.
Blood samples were collected by jugular or coccygeal venipuncture into 10 ml heparinized vacuum tubes (Becton Dickinson Vacutainer Systems, Franklin Lakes, N.J., USA). Blood samples were collected at 0, 0.25, 0.5, 1, 1.5, 2, 3, 4, 6, 8, 12, 24, 36, 48 hours post-treatment using an indwelling jugular catheter as previously described and daily thereafter to the first post-treatment ovulation. Blood samples were centrifuged at 1500×g for 20 minutes; plasma was separated and stored in plastic tubes at −20° C.
Plasma concentrations of letrozole were determined using high performance liquid chromatography tandem mass spectrometry (LC/MS/MS). To extract letrozole from the samples, 250 μL of a buffer solution (0.1M ammonium) were added to 250 μL of plasma followed by the addition of 5 mL of methyl t-butyl ether (MTBE) and vortexed for 15 seconds. The organic layer was removed by pipetting and transferred to a fresh 15 mL plastic tube. This second tube was dried by gentle nitrogen gas flow. The dried extract was reconstituted in 1 mL of 100% ethanol, sonicated for 5 minutes and transferred to a labelled vial for further analysis. Separation was accomplished by HPLC (Agilent 1200, Santa Clara, Calif., USA) fitted with an analytical column (50×2.1 mm, 3 μm particle size; Thermo Scientific Betasil C18, Waltham, Mass., USA) operated at 35° C. Gradient conditions were used at a flow rate of 250 μL/min, starting at 85% A (0.1% acetic acid) and 15% B (0.1% acetic acid in acetonitrile). Initial conditions were held for 2 min and then ramped to 100% B at 6 min, held until 9 min, decreased to 0% B at 11 minutes, and returned to initial conditions at 13 minutes, and held constant until 15 minutes. Mass spectra were collected using a tandem mass spectrometer (Applied Bioscience SCIEX 3000, Foster City, Calif., USA) fitted with an electrospray ionization source, operated in the negative ionization mode. Chromatograms were recorded using multiple reaction monitoring (MRM) mode, where at least two transitions per-analyte were monitored. […]

circulating estradiol = conditions: post-menopausal women [30]; cited from earlier work
[2] = female, bovine, plasma, 125 ug/kg, 125 μg/kg single iv, n=9
[3] = female, bovine, plasma, 250 ug/kg, 250 μg/kg single iv, n=9
[4] = female, bovine, plasma, 500 ug/kg, 500 μg/kg single iv, n=9
[5] = female, bovine, plasma, iv, 125 ug/kg, 125 μg/kg single iv, n=9
[6] = female, bovine, plasma, iv, 250 ug/kg, 250 μg/kg single iv, n=9
[7] = female, bovine, plasma, iv, 500 ug/kg, 500 μg/kg single iv, n=9
[8] = female, bovine, plasma, iv, doses combined

In the case of `N#Cc1ccc(C(c2ccc(C#N)cc2)n2cncn2)cc1` [Letrozole, letrozole], the “differences in plasma progesterone concentrations vs control” value (plasma progesterone) is reported as “not significant”, the “mean circulating level of letrozole during the first 96 hours” value ([1]; 250 μg/kg, single application) is reported as 112 ± 16.26 ng/mL and the “Half-life (T1/2)” value ([1]; doses combined) is reported as 27.3 ± 0.42 h. For the same molecule, the AUC(0-t) [1, 2] was 8800 ± 720 ng·h/mL, the Cmax [1, 2] was 1200 ± 250 ng/mL and the clearance [1, 2] was 0.243 mL/min/kg. For the same molecule, the AUC(0-t) [1, 3] was 17300 ± 2000 ng·h/mL, the Cmax [1, 3] was 1700 ± 180 ng/mL and the clearance [1, 3] was 0.258 mL/min/kg. For the same molecule, the AUC(0-t) [1, 4] was 28100 ± 2150 ng·h/mL, the Cmax [1, 4] was 2500 ± 370 ng/mL and the clearance [1, 4] was 0.308 mL/min/kg. It also gave a concentration at 96 hours ([1]; female, bovine, plasma, intravenous, 250 μg/kg given in a single dose, read-out: mean concentration of letrozole in the circulation at 96 hours) of 43.7 ± 8.79 ng/mL, a half-life [1, 5] of 26.9 ± 0.95 h and an MRT [1, 5] of 31.7 ± 2 h. It also gave a half-life [1, 6] of 26.6 ± 1.18 h, an MRT [1, 6] of 33.7 ± 2.98 h and a half-life [1, 7] of 28.5 ± 1.05 h. For the same molecule, the MRT [1, 7] was 35.8 ± 1.43 h, the AUC(0-t) [1, 8] was 18200 ± 4030 ng·h/mL and the half-life [1, 8] was 27 h. It also gave a Cmax [1, 8] of 1800 ± 270 ng/mL, an MRT [1, 8] of 34 h and a clearance [1, 8] of 0.27 mL/min/kg. For the same molecule, the “mean plasma letrozole concentration throughout the 8-day period” value ([1]; high dose 500 μg/kg iv) was 0.63 ± 0.04 µg/mL, the “mean plasma letrozole concentration throughout the 8-day period” value ([1]; low dose 125 μg/kg iv) was 0.27 ± 0.04 µg/mL and the “mean plasma letrozole concentration throughout the 8-day period” value ([1]; medium dose 250 μg/kg iv) was 0.44 ± 0.04 µg/mL. The “reduction in circulating estradiol concentrations” value (circulating estradiol) was 97-99%.
